Source: ChEMBL document CHEMBL1126188, “Synthesis and anti-HIV activity of 4'-thio-2',3'-dideoxynucleosides” (J Med Chem, 1992)
In brackets after ≈: the same amount, converted by molar mass.

Legend:
CCRF-CEM [1] = assay: Total viral index (TAI) is the area between the cytotoxicity and the antiviral activity curve for CEM cells.
CCRF-CEM [2] = assay: Compound was tested for its inhibitory activity against HIV replication in CEM cells.; details: Homo sapiens
[3] = Selectivity index is calculated by dividing the TC25(CEM) by ID50(CEM); type: functional
CCRF-CEM [4] = assay: Minimum compound concentration that reduced cell viability by 25% for HIV replication in CEM cells.
MT2 [5] = assay: Compound was tested for its inhibitory activity against HIV replication in MT-2 cells.; type: functional, cell-based; details: Homo sapiens
[6] = Selectivity index is calculated by dividing the TC25(MT2) by ID50(MT2); type: functional
MT2 [7] = assay: Minimum compound concentration that reduced cell viability by 25% for HIV replication in MT-2 cells.; type: functional, Homo sapiens
MT2 [8] = assay: Total viral index (TAI) is the area between the cytotoxicity and the antiviral activity curve for MT-2 cell line.; type: functional, Homo sapiens
CCRF-CEM [9] = assay: Minimum compound concentration that reduced cell viability by 25% for HIV replication in CEM cells.; type: functional, Homo sapiens
CCRF-CEM [10] = assay: Total viral index (TAI) is the area between the cytotoxicity and the antiviral activity curve for CEM cells.; type: functional, Homo sapiens
CCRF-CEM [11] = assay: Compound was tested for its inhibitory activity against HIV replication in CEM cells.; type: functional, cell-based; details: Homo sapiens
MT2 [12] = assay: Total viral index (TAI) is the area between the cytotoxicity and the antiviral activity curve for MT-2 cells.; type: functional, Homo sapiens
CCRF-CEM [13] = assay: Total viral index (TAI) is the area between the cytotoxicity and the antiviral activity curve for CEM cell line.; type: functional, Homo sapiens

What does the source list for `Nc1nc(N)c2ncn(C3CC[C@@H](CO)S3)c2n1` (some centres not stated)?
TAI (CCRF-CEM [1]): 21; IC50 (CCRF-CEM [2]): 37 µg/mL (≈ 139 µM); Selectivity index [3]: 2.6; TC25 (CCRF-CEM [4]): 97 µg/mL (≈ 364 µM)

For `Nc1nc(O)c2ncn(C3CC[C@@H](CO)S3)c2n1` (some centres not stated), which IC50 (MT2 [5]) is on record?
The IC50 was 98 µg/mL (≈ 367 µM).

And the Selectivity index [6]?
Its Selectivity index is 1.6.

What about the TC25 (MT2 [7]) of the same molecule?
The TC25 was >200 µg/mL.

What about the TAI (MT2 [8]) of the same molecule?
Its TAI is 11.

What about the TC25 (CCRF-CEM [9]) of the same molecule?
The TC25 was >100 µg/mL.

Which IC50 (MT2 [5]) does the source give for `Cc1cn([C@H]2C[C@H](N=[N+]=[N-])[C@@H](CO)O2)c(=O)[nH]c1=O` [ZIDOVUDINE] here?
The IC50 was 0.14 µg/mL (≈ 0.524 µM).

And the Selectivity index [6]?
Its Selectivity index is > 160.

What about the TAI (CCRF-CEM [10]) of the same molecule?
The TAI was >93.

And the Selectivity index [3]?
Its Selectivity index is > 300.

What about the TC25 (MT2 [7]) of the same molecule?
Its TC25 is 9.3 µg/mL (≈ 34.8 µM).

And the TAI (MT2 [8])?
The TAI was >82.

And the TC25 (CCRF-CEM [9])?
Its TC25 is >10 µg/mL.

What about the IC50 (CCRF-CEM [11]) of the same molecule?
Its IC50 is < 0.03 µg/mL.

With `Nc1ncnc2c1ncn2C1CC[C@@H](CO)S1` (some centres not stated) as the molecule, how does the IC50 (MT2 [5]) read?
The IC50 was 80 µg/mL (≈ 318 µM).

And the Selectivity index [6]?
Its Selectivity index is 1.3.

And the TC25 (MT2 [7])?
Its TC25 is >100 µg/mL.

What about the TAI (MT2 [8]) of the same molecule?
The TAI was >10.

With `Nc1ccn([C@H]2CC[C@@H](CO)O2)c(=O)n1` [ZALCITABINE] as the molecule, how does the IC50 (MT2 [5]) read?
Its IC50 is 0.44 µg/mL (≈ 2.08 µM).

What about the Selectivity index [6] of the same molecule?
The Selectivity index was > 25.

And the TAI (CCRF-CEM [10])?
The TAI was >63.

What about the Selectivity index [3] of the same molecule?
The Selectivity index was 120.

And the TC25 (MT2 [7])?
The TC25 was >9.8 µg/mL.

And the TAI (MT2 [8])?
Its TAI is >52.

What about the TC25 (CCRF-CEM [9]) of the same molecule?
Its TC25 is 5.3 µg/mL (≈ 25.1 µM).

What about the IC50 (CCRF-CEM [11]) of the same molecule?
Its IC50 is 0.05 µg/mL (≈ 0.237 µM).

With `Nc1ccn(C2CC[C@@H](CO)S2)c(=O)n1` (some centres not stated) as the molecule, how does the TAI (MT2 [12]) read?
The TAI was >23.

And the IC50 (MT2 [5])?
The IC50 was 38 µg/mL (≈ 167 µM).

And the TAI (CCRF-CEM [13])?
The TAI was >65.

And the Selectivity index [6]?
The Selectivity index was > 100.

And the Selectivity index [3]?
Its Selectivity index is > 100.

What about the TC25 (MT2 [7]) of the same molecule?
Its TC25 is >100 µg/mL.

And the TC25 (CCRF-CEM [9])?
The TC25 was >100 µg/mL.

And the IC50 (CCRF-CEM [11])?
Its IC50 is 1 µg/mL (≈ 4.4 µM).
